Assay results published in ChEMBL document CHEMBL3991601, “The target landscape of clinical kinase drugs” (Science, 2017).
The source made the active and inactive calls. Rule as the data show it, for most assays here: actives have a measured Kd and inactives only a lower limit.

Assays:
[1] = target: LIM domain kinase 1 (Homo sapiens, UniProt P53667)
[2] = target: Calcium/calmodulin-dependent protein kinase type II subunit gamma (Homo sapiens, UniProt Q13555)
[3] = target: Serine/threonine-protein kinase PAK 4 (Homo sapiens, UniProt O96013)
Sequence of Serine/threonine-protein kinase PAK 4 (O96013 whole entry): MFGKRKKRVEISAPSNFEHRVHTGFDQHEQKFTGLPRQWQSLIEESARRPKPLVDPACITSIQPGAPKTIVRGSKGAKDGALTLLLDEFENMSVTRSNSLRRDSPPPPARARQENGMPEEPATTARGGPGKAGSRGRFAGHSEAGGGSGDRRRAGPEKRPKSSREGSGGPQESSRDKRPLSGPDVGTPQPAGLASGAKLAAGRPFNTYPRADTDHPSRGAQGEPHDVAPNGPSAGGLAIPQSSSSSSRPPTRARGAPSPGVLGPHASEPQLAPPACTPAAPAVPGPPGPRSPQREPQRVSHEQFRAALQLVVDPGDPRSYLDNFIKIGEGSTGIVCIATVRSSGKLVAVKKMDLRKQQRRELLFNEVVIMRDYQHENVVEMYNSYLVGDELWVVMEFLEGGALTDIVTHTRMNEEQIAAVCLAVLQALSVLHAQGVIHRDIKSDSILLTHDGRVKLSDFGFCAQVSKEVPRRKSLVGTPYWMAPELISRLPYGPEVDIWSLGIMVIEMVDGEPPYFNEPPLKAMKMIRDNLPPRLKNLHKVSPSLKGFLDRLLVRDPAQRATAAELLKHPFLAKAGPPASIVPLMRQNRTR

[4] = target: Elongation factor Tu, mitochondrial (Homo sapiens, UniProt P49411)
[5] = target: Cyclin-dependent kinase 1 (Homo sapiens, UniProt P06493)
Sequence of Cyclin-dependent kinase 1 (P06493 whole entry): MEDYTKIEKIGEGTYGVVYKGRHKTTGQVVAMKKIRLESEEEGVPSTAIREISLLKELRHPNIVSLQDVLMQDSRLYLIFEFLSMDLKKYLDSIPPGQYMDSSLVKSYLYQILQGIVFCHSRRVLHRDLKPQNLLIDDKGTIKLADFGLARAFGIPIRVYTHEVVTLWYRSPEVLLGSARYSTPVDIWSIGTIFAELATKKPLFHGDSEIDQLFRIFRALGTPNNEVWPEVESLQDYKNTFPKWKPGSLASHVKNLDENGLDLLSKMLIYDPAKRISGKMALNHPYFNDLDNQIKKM

[6] = target: T1, Mitogen-activated protein kinase kinase kinase kinase 2 (Homo sapiens, UniProt Q12851)
T1 sequence (Q12851 whole entry): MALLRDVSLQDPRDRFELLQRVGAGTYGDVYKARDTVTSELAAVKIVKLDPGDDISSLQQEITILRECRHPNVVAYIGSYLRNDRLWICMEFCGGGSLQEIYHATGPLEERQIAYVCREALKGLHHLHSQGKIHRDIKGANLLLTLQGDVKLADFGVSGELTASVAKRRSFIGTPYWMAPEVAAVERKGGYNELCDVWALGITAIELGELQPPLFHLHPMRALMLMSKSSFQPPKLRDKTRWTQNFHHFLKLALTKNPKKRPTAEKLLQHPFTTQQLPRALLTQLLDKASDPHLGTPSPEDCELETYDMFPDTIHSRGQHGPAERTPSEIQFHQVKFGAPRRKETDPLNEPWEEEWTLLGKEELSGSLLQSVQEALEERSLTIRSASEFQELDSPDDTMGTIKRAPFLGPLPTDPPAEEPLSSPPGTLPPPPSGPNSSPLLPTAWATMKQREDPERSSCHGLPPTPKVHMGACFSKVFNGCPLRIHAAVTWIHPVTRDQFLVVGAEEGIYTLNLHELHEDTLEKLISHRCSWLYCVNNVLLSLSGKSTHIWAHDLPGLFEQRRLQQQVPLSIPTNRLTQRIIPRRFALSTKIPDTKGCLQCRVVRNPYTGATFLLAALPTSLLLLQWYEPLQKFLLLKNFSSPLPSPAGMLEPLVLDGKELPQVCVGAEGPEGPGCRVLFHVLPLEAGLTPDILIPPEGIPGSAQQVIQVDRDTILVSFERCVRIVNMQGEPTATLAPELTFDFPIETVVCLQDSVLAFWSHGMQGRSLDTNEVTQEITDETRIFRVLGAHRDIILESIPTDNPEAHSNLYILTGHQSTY

[7] = target: T2, Serine/threonine-protein kinase Nek1 (Homo sapiens, UniProt Q96PY6)
T2 sequence (Q96PY6 whole entry): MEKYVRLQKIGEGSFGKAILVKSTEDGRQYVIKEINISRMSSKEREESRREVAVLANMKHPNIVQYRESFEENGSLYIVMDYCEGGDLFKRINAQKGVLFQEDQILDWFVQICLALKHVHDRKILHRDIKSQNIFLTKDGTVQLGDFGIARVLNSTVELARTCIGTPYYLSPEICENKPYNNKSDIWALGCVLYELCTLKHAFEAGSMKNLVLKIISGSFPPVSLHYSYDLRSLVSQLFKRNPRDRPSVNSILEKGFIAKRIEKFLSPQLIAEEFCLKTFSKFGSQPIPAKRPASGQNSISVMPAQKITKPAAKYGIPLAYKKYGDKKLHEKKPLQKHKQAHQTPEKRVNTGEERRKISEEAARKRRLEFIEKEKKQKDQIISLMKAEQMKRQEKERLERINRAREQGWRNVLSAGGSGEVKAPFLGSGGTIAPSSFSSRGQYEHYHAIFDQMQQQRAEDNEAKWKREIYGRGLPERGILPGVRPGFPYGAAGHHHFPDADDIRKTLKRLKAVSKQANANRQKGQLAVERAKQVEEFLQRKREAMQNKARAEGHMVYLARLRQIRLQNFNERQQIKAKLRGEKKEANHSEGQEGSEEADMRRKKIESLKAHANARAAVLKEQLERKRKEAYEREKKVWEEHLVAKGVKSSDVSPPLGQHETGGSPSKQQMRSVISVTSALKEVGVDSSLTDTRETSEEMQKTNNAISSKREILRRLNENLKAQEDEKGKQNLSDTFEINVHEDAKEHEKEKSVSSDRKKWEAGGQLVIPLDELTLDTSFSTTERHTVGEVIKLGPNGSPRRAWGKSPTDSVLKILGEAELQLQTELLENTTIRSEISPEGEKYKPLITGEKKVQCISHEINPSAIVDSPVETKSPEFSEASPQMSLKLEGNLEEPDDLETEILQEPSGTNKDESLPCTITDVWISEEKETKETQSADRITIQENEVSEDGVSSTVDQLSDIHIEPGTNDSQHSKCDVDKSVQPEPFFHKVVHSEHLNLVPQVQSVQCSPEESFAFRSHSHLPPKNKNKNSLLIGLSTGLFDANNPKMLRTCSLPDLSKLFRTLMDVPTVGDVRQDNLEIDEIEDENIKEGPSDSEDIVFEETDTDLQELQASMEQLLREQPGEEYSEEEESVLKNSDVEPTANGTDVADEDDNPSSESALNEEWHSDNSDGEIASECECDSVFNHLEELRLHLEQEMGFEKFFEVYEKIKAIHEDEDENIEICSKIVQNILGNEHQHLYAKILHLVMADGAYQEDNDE

[8] = target: T3, Pyridoxal kinase (Homo sapiens, UniProt O00764)
T3 sequence (O00764 whole entry): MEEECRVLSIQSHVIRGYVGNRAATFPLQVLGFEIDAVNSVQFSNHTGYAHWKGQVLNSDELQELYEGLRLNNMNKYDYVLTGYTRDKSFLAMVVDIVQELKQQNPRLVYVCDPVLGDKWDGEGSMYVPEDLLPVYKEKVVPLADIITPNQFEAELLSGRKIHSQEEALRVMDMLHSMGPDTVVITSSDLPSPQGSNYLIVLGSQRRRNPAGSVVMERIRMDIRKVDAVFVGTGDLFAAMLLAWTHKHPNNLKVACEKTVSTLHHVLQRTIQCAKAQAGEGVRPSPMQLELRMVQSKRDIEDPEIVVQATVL

[9] = target: Ribosomal protein S6 kinase alpha-1 (Homo sapiens, UniProt Q15418)
Sequence of Ribosomal protein S6 kinase alpha-1 (Q15418 whole entry): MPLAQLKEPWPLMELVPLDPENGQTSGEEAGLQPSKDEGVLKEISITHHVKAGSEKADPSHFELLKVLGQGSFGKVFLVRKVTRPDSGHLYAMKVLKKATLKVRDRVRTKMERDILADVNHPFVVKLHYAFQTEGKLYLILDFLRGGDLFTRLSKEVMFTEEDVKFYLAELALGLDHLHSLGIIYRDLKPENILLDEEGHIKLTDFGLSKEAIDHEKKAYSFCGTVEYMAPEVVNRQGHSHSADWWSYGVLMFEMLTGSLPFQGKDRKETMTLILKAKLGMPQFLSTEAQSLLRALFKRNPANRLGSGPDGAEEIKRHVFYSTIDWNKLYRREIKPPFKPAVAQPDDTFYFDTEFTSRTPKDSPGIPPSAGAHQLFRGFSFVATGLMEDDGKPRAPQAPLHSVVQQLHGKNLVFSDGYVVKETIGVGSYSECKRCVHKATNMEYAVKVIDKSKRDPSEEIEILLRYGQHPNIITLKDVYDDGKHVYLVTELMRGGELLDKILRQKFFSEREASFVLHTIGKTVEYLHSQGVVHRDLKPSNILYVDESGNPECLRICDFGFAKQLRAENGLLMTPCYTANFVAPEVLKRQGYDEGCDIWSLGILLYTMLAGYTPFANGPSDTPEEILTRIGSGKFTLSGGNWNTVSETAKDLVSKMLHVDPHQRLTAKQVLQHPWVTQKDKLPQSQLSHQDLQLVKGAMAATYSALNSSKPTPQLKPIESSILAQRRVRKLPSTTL
Also: in the data inactive means no Kd found up to 30 µM.

Sequence of LIM domain kinase 1 (P53667 whole entry, the tested form may be a part): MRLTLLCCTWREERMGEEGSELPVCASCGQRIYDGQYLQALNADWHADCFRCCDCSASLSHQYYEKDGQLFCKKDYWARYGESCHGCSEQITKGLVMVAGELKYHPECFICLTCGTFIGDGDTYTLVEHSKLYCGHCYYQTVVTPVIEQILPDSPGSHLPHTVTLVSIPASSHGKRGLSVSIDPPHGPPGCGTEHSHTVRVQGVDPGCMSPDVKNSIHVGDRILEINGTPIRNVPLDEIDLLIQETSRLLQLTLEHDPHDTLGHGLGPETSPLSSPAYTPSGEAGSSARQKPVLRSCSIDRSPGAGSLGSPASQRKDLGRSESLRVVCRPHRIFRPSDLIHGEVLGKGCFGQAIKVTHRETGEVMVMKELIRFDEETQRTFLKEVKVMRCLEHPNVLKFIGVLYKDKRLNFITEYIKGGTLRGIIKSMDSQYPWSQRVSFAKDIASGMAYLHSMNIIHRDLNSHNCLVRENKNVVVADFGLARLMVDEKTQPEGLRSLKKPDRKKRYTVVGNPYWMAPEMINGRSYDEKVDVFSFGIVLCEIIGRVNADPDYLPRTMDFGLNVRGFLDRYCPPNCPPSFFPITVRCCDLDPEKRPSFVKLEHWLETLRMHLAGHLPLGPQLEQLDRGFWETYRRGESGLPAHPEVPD
Sequence of Calcium/calmodulin-dependent protein kinase type II subunit gamma (Q13555 whole entry): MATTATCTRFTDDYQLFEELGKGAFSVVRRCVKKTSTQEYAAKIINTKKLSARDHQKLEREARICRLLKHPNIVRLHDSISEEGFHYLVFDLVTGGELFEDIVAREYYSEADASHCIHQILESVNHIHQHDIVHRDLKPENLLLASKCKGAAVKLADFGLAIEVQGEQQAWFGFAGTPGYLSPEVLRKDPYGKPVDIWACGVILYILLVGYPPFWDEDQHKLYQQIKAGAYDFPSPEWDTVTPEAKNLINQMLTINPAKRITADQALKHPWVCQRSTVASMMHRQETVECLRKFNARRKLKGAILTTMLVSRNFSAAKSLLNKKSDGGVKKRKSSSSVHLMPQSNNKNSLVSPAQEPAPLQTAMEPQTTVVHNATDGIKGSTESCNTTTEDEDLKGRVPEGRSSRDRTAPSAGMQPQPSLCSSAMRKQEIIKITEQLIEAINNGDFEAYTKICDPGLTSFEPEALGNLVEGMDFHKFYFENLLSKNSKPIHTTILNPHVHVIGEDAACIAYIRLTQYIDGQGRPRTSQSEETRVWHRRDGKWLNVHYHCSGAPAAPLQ

Kd [1] | Kd [2] | Kd [3] | Kd [4] | Kd [5] | Kd [6] | Kd [7] | Kd [8] | Kd [9] | SMILES
> 30 µM (inactive) | > 30 µM (inactive) | > 30 µM (inactive) | > 30 µM (inactive) | > 30 µM (inactive) | > 30 µM (inactive) | > 30 µM (inactive) | > 30 µM (inactive) | > 30 µM (inactive) | O=C1NC(=O)[C@@H](c2cn3c4c(cccc24)CCC3)[C@@H]1c1c[nH]c2ccccc12 [TIVANTINIB]
1.02 µM (active) | > 30 µM (inactive) | > 30 µM (inactive) | > 30 µM (inactive) | > 30 µM (inactive) | > 30 µM (inactive) | > 30 µM (inactive) | > 30 µM (inactive) | > 30 µM (inactive) | C[C@@H](NC(=O)c1ncnc(N)c1Cl)c1ncc(C(=O)Nc2cc(C(F)(F)F)c(Cl)cn2)s1 [TOVORAFENIB]
> 30 µM (inactive) | > 30 µM (inactive) | > 30 µM (inactive) | > 30 µM (inactive) | > 30 µM (inactive) | > 30 µM (inactive) | > 30 µM (inactive) | > 30 µM (inactive) | > 30 µM (inactive) | Cn1ncc(Cl)c1-c1cc(C(=O)N[C@H](CN)Cc2ccc(F)c(F)c2)oc1Cl [UPROSERTIB]
2.07 µM (active) | > 30 µM (inactive) | 50.4 µM | > 30 µM (inactive) | > 30 µM (inactive) | 0.352 µM (active) | > 30 µM (inactive) | > 30 µM (inactive) | > 30 µM (inactive) | CC(C)c1cc(CNc2nc(Nc3cc(C4CC4)[nH]n3)cc(N3CCN(C)CC3)n2)on1 [XL-228]
> 30 µM (inactive) | > 30 µM (inactive) | > 30 µM (inactive) | > 30 µM (inactive) | > 30 µM (inactive) | > 30 µM (inactive) | > 30 µM (inactive) | > 30 µM (inactive) | > 30 µM (inactive) | C[C@@H](N)c1ccc(C(=O)Nc2ccnc3[nH]ccc23)cc1 [Y-39983]
> 30 µM (inactive) | > 30 µM (inactive) | > 30 µM (inactive) | > 30 µM (inactive) | > 30 µM (inactive) | 1.36 µM (active) | > 30 µM (inactive) | > 30 µM (inactive) | > 30 µM (inactive) | CN1C/C=C/CCOc2cccc(c2)-c2ccnc(n2)Nc2cccc(c2)C1 [ZOTIRACICLIB]

SMILES | Kd [1] | Kd [2] | Kd [3] | Kd [4] | Kd [5] | Kd [6] | Kd [7] | Kd [8] | Kd [9]
Cc1cc(Nc2ncnc3ccc(NC4=NC(C)(C)CO4)cc23)ccc1Oc1ccn2ncnc2c1 [TUCATINIB] | > 30 µM (inactive) | > 30 µM (inactive) | > 30 µM (inactive) | > 30 µM (inactive) | > 30 µM (inactive) | > 30 µM (inactive) | > 30 µM (inactive) | > 30 µM (inactive) | > 30 µM (inactive)
